Laboratory results: patent US12227500B2, “Substituted pyrrolo[2,3-b]pyridines for suppressing toxic endoplasmic reticulum stress” (THE TRUSTEES OF COLUMBIA UNIVERSITY IN THE CITY OF NEW YORK, priority 2018, dated 2025)
Read-outs that look alike come from different tables or passages of the source.

Assays:
Assay in all cases: Radiolabeled ATP kinase assay, panel of 371 kinases (Table S6)
Format in all cases: biochemical
[1] = molecular target: T1, panel of 371 human kinases (Homo sapiens, UniProt O94806); settings: PKCnu/PRKD3; 0.1 μM; 10 μM ATP; read-out: % Enzyme Activity (relative to DMSO controls)
T1 construct: purchased Reaction Biology Corp
T1 sequence (O94806 whole entry): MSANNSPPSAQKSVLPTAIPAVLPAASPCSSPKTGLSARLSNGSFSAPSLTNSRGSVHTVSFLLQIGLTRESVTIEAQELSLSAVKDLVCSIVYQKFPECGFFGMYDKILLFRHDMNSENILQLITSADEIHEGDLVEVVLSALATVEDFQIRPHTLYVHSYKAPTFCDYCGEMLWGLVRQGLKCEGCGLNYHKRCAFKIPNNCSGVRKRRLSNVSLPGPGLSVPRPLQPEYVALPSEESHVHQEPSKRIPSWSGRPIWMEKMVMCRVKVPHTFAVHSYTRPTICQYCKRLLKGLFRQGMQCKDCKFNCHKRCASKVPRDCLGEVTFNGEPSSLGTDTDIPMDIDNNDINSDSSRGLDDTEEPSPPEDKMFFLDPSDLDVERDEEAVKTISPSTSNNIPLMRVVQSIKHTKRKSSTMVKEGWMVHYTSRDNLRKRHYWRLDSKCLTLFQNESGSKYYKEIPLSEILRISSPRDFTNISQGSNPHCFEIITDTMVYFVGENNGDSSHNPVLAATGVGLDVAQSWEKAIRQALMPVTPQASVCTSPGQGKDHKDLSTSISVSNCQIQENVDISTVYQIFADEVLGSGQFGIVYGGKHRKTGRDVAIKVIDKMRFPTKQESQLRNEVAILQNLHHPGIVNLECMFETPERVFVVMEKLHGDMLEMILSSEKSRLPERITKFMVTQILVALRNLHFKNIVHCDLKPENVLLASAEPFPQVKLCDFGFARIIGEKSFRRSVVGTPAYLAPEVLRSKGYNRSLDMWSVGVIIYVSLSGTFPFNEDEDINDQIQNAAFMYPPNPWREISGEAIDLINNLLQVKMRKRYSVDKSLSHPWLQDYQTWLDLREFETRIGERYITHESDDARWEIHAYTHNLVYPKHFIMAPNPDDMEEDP
From the text: (§1) ; FIG. 38C). […]. Further targeted analyses, such as genetic knock-down or knock-out, may be warranted to parse the role of these additional kinases in our model of neurodegeneration.

[2] = molecular target: T2, panel of 371 human kinases (Homo sapiens, UniProt Q8TF76); settings: Haspin; 0.1 μM; 10 μM ATP; read-out: % Enzyme Activity (relative to DMSO controls)
T2 construct: purchased Reaction Biology Corp
From the text: as §1

[3] = molecular target: T3, panel of 371 human kinases (Homo sapiens, UniProt P42685); settings: FRK/PTK5; 0.1 μM; 10 μM ATP; read-out: % Enzyme Activity (relative to DMSO controls)
T3 construct: purchased Reaction Biology Corp
From the text: as §1

[4] = molecular target: T4, panel of 371 human kinases (Homo sapiens, UniProt P57078); settings: RIPK4; 0.1 μM; 10 μM ATP; read-out: % Enzyme Activity (relative to DMSO controls)
T4 construct: purchased Reaction Biology Corp
From the text: as §1

[5] = molecular target: T5, panel of 371 human kinases (Homo sapiens, UniProt P32298); settings: GRK4; 0.1 μM; 10 μM ATP; read-out: % Enzyme Activity (relative to DMSO controls)
T5 construct: purchased Reaction Biology Corp
From the text: as §1

[6] = molecular target: T6, panel of 371 human kinases (Homo sapiens, UniProt P51817); settings: PRKX; 0.1 μM; 10 μM ATP; read-out: % Enzyme Activity (relative to DMSO controls)
T6 construct: purchased Reaction Biology Corp
T6 sequence (P51817 whole entry): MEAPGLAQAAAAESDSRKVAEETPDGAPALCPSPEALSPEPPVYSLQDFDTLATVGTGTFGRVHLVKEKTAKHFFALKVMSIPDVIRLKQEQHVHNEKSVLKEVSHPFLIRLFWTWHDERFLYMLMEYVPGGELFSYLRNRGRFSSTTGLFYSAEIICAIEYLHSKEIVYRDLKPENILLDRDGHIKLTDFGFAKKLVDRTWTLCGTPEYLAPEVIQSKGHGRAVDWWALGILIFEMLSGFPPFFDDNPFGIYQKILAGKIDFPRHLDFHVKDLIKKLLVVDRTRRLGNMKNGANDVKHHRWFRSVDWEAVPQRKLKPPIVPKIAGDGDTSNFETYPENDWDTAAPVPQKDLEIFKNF
From the text: as §1

[7] = molecular target: T7, panel of 371 human kinases (Homo sapiens, UniProt O75116); settings: ROCK2; 0.1 μM; 10 μM ATP; read-out: % Enzyme Activity (relative to DMSO controls)
T7 construct: purchased Reaction Biology Corp
T7 sequence (O75116 whole entry): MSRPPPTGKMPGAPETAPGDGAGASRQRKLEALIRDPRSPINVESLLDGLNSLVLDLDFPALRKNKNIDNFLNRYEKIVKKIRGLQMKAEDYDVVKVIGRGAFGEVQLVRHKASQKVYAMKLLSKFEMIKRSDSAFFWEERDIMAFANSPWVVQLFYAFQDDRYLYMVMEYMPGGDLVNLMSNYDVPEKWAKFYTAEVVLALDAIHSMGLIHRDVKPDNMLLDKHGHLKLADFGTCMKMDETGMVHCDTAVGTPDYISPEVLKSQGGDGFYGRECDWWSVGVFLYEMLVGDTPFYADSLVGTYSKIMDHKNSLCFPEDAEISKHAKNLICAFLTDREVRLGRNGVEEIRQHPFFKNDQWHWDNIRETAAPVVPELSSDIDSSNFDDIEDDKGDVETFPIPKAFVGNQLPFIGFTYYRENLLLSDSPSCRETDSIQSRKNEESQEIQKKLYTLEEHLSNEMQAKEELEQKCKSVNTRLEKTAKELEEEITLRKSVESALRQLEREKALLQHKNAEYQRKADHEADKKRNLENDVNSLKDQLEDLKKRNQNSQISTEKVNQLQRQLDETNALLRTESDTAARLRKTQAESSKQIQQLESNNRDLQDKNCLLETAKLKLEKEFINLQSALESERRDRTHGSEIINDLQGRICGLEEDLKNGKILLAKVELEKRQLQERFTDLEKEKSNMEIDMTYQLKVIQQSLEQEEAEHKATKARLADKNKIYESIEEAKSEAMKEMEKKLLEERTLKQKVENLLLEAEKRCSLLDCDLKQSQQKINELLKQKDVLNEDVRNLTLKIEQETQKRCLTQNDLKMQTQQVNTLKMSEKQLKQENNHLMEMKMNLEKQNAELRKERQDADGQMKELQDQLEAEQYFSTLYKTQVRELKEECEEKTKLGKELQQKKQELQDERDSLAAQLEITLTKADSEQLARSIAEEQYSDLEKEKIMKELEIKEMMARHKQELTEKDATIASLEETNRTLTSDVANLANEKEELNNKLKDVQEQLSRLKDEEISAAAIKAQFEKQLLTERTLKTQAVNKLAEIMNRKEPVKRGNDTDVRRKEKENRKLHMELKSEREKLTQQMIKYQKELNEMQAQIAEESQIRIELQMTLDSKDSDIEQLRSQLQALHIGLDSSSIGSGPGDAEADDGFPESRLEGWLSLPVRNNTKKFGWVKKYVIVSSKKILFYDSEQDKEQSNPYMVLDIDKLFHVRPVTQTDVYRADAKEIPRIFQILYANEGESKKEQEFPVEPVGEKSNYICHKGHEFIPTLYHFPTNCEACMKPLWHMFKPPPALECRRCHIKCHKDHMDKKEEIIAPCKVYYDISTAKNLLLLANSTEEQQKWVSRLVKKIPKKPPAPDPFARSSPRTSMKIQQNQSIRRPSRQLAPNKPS
From the text: as §1

[8] = molecular target: T8, panel of 371 human kinases (Homo sapiens, UniProt Q02763); settings: TIE2/TEK; 0.1 μM; 10 μM ATP; read-out: % Enzyme Activity (relative to DMSO controls)
T8 construct: purchased Reaction Biology Corp
From the text: as §1

[9] = molecular target: T9, panel of 371 human kinases (Homo sapiens, UniProt Q8NG66); settings: NEK11; 0.1 μM; 10 μM ATP; read-out: % Enzyme Activity (relative to DMSO controls)
T9 construct: purchased Reaction Biology Corp
T9 sequence (Q8NG66 whole entry): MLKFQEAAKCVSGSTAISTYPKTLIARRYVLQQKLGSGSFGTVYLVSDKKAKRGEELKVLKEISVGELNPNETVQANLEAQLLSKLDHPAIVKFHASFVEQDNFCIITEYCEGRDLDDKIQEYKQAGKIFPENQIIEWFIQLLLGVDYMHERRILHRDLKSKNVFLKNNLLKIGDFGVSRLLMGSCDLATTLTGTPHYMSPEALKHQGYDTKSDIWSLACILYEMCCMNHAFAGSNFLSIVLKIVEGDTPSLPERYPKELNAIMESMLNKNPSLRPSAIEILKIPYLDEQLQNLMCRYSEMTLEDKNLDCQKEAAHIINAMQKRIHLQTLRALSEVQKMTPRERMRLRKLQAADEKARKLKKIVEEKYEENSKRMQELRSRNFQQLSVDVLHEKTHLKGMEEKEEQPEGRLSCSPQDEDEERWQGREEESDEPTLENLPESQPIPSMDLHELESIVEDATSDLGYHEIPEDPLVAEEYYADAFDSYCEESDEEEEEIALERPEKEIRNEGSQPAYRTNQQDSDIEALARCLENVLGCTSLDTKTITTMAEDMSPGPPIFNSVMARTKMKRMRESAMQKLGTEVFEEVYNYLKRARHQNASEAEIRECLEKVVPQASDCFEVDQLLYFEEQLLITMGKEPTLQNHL
From the text: as §1

[10] = molecular target: T10, panel of 371 human kinases (Homo sapiens, UniProt P36897); settings: ALK5/TGFBR1; 0.1 μM; 10 μM ATP; read-out: % Enzyme Activity (relative to DMSO controls)
T10 construct: purchased Reaction Biology Corp
From the text: as §1

[11] = molecular target: T11, panel of 371 human kinases (Homo sapiens, UniProt Q16832); settings: DDR2; 0.1 μM; 10 μM ATP; read-out: % Enzyme Activity (relative to DMSO controls)
T11 construct: purchased Reaction Biology Corp
T11 sequence (Q16832 22-855): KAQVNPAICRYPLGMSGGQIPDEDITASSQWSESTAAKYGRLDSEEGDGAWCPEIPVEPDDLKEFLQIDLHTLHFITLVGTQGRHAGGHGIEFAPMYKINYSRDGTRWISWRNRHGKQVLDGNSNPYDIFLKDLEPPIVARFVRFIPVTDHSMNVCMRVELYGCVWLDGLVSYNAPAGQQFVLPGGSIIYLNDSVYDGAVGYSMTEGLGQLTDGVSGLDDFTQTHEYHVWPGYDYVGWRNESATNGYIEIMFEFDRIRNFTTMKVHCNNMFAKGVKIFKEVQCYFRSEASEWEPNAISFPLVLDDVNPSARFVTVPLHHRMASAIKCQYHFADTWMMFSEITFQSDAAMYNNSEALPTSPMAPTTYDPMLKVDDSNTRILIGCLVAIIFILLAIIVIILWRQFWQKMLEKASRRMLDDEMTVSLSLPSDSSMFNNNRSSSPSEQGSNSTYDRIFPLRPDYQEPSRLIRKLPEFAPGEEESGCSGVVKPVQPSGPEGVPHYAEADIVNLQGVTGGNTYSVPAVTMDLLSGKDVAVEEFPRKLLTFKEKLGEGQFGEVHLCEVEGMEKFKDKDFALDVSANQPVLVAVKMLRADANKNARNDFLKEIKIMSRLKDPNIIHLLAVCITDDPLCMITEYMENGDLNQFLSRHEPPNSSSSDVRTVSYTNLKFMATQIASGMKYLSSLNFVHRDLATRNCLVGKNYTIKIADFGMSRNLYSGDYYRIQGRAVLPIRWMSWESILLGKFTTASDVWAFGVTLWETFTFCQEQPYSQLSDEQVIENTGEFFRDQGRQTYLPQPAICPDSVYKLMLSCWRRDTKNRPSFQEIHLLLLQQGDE
From the text: as §1

[12] = molecular target: T12, panel of 371 human kinases (Homo sapiens, UniProt P49841); settings: GSK3b; 0.1 μM; 10 μM ATP; read-out: % Enzyme Activity (relative to DMSO controls)
T12 construct: purchased Reaction Biology Corp
From the text: as §1

[13] = molecular target: T13, panel of 371 human kinases (Homo sapiens, UniProt Q9NR20); settings: DYRK4; 0.1 μM; 10 μM ATP; read-out: % Enzyme Activity (relative to DMSO controls)
T13 construct: purchased Reaction Biology Corp
T13 sequence (Q9NR20 whole entry): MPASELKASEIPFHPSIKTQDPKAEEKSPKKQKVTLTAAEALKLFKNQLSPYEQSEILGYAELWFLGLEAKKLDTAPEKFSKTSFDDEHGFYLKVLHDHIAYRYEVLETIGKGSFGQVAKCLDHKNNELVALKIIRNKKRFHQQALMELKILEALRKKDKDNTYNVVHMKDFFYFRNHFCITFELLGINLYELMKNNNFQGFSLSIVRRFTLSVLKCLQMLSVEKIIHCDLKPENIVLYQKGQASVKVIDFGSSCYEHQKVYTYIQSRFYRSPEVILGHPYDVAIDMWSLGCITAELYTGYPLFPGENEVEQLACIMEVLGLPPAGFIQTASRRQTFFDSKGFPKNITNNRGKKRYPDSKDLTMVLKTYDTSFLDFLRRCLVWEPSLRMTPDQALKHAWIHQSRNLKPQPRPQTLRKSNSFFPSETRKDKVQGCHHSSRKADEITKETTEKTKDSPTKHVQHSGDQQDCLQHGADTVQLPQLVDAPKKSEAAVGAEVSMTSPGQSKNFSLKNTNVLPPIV
From the text: as §1

[14] = molecular target: T14, panel of 371 human kinases (Homo sapiens, UniProt P08581); settings: c-MET; 0.1 μM; 10 μM ATP; read-out: % Enzyme Activity (relative to DMSO controls)
T14 construct: purchased Reaction Biology Corp
From the text: as §1

[15] = molecular target: T15, panel of 371 human kinases (Homo sapiens, UniProt Q9NRM7); settings: LATS2; 0.1 μM; 10 μM ATP; read-out: % Enzyme Activity (relative to DMSO controls)
T15 construct: purchased Reaction Biology Corp
From the text: as §1

[16] = molecular target: T16, panel of 371 human kinases (Homo sapiens, UniProt Q5VT25); settings: MRCKa/CDC42BPA; 0.1 μM; 10 μM ATP; read-out: % Enzyme Activity (relative to DMSO controls)
T16 construct: purchased Reaction Biology Corp
From the text: as §1

[17] = molecular target: T17, panel of 371 human kinases (Homo sapiens, UniProt P45984); settings: JNK2; 0.1 μM; 10 μM ATP; read-out: % Enzyme Activity (relative to DMSO controls)
T17 construct: purchased Reaction Biology Corp
From the text: as §1

[18] = molecular target: T18, panel of 371 human kinases (Homo sapiens, UniProt Q9UM73); settings: ALK; 0.1 μM; 10 μM ATP; read-out: % Enzyme Activity (relative to DMSO controls)
T18 construct: purchased Reaction Biology Corp
From the text: as §1

[19] = molecular target: T19, panel of 371 human kinases (Homo sapiens, UniProt Q00536); settings: CDK16/cyclin Y (PCTAIRE); 0.1 μM; 10 μM ATP; read-out: % Enzyme Activity (relative to DMSO controls)
T19 construct: purchased Reaction Biology Corp
From the text: as §1

[20] = molecular target: T20, panel of 371 human kinases (Homo sapiens, UniProt P50750); settings: 0.1 μM, 10 μM ATP, read-out: % Enzyme Activity (relative to DMSO controls)
T20 construct: purchased Reaction Biology Corp
T20 sequence (P50750 whole entry): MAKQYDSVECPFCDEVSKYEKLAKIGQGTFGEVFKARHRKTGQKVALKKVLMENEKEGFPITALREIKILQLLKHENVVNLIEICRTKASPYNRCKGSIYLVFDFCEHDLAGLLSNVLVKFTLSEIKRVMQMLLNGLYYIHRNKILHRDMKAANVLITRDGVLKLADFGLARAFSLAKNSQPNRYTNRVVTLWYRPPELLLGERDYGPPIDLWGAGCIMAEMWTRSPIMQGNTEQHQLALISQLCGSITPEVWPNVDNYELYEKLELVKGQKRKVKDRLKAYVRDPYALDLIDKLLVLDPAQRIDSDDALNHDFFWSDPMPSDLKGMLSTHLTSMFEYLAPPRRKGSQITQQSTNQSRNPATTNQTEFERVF
From the text: as §1

[21] = molecular target: T21, panel of 371 human kinases (Homo sapiens, UniProt Q6PHR2); settings: ULK3; 0.1 μM; 10 μM ATP; read-out: % Enzyme Activity (relative to DMSO controls)
T21 construct: purchased Reaction Biology Corp
From the text: as §1

[22] = molecular target: T22, panel of 371 human kinases (Homo sapiens, UniProt Q15139); settings: PKCmu/PRKD1; 0.1 μM; 10 μM ATP; read-out: % Enzyme Activity (relative to DMSO controls)
T22 construct: purchased Reaction Biology Corp
From the text: as §1

[23] = molecular target: T23, panel of 371 human kinases (Homo sapiens, UniProt Q9UQM7); settings: CAMK2a; 0.1 μM; 10 μM ATP; read-out: % Enzyme Activity (relative to DMSO controls)
T23 construct: purchased Reaction Biology Corp
From the text: as §1

[24] = molecular target: T24, panel of 371 human kinases (Homo sapiens, UniProt P06213); settings: IR; 0.1 μM; 10 μM ATP; read-out: % Enzyme Activity (relative to DMSO controls)
T24 construct: purchased Reaction Biology Corp
From the text: as §1

CN1CCN(Cc2ccc(-c3cnc4[nH]cc(-c5ccc6[nH]ccc6c5)c4c3)cc2)CC1 [Compound 1, 3-(1H-Indol-5-yl)-5-(4-((4-methylpiperazin-1-yl)methyl)phenyl)-1H-pyrrolo[2,3-b]pyridine, reference compound]
remaining activity at 0.1 µM [1]: 29.1% | remaining activity at 0.1 µM [2]: 128% | remaining activity at 0.1 µM [3]: 91.1% | remaining activity at 0.1 µM [4]: 98.3% | remaining activity at 0.1 µM [5]: 106% | remaining activity at 0.1 µM [6]: 95.5% | remaining activity at 0.1 µM [7]: 71.1% | remaining activity at 0.1 µM [8]: 95% | remaining activity at 0.1 µM [9]: 107% | remaining activity at 0.1 µM [10]: 97.6% | remaining activity at 0.1 µM [11]: 102% | remaining activity at 0.1 µM [12]: 99% | remaining activity at 0.1 µM [13]: 111% | remaining activity at 0.1 µM [14]: 87.8% | remaining activity at 0.1 µM [15]: 83.2% | remaining activity at 0.1 µM [16]: 105% | remaining activity at 0.1 µM [17]: 99.4% | remaining activity at 0.1 µM [18]: 73.8% | remaining activity at 0.1 µM [19]: 130% | remaining activity at 0.1 µM ([20]; CDK9/cyclin K): 79.8% | remaining activity at 0.1 µM ([20]; CDK9/cyclin T1): 86% | remaining activity at 0.1 µM ([20]; CDK9/cyclin T2): 112% | remaining activity at 0.1 µM [21]: 70% | remaining activity at 0.1 µM [22]: 24.4% | remaining activity at 0.1 µM [23]: 101% | remaining activity at 0.1 µM [24]: 100%

OCCN1CCN(Cc2ccc(-c3cnc4[nH]cc(-c5cccc(Cl)c5)c4c3)cc2)CC1 [Compound 12k, 2-(4-(4-(3-(3-Chlorophenyl)-1H-pyrrolo[2,3-b]pyridin-5-yl)benzyl)piperazin-1-yl)ethan-1-ol]
remaining activity at 0.1 µM [1]: 13.6% | remaining activity at 0.1 µM [2]: 75% | remaining activity at 0.1 µM [3]: 98.3% | remaining activity at 0.1 µM [4]: 98% | remaining activity at 0.1 µM [5]: 106% | remaining activity at 0.1 µM [6]: 96.1% | remaining activity at 0.1 µM [7]: 55.6% | remaining activity at 0.1 µM [8]: 103% | remaining activity at 0.1 µM [9]: 101% | remaining activity at 0.1 µM [10]: 98.5% | remaining activity at 0.1 µM [11]: 100% | remaining activity at 0.1 µM [12]: 89.6% | remaining activity at 0.1 µM [13]: 101% | remaining activity at 0.1 µM [14]: 88.2% | remaining activity at 0.1 µM [15]: 88.1% | remaining activity at 0.1 µM [16]: 96.1% | remaining activity at 0.1 µM [17]: 97% | remaining activity at 0.1 µM [18]: 85.3% | remaining activity at 0.1 µM [19]: 97.3% | remaining activity at 0.1 µM ([20]; CDK9/cyclin K): 88.5% | remaining activity at 0.1 µM ([20]; CDK9/cyclin T1): 88.7% | remaining activity at 0.1 µM ([20]; CDK9/cyclin T2): 99.1% | remaining activity at 0.1 µM [21]: 41.5% | remaining activity at 0.1 µM [22]: 3.95% | remaining activity at 0.1 µM [23]: 110% | remaining activity at 0.1 µM [24]: 112%
